In patent US7659333B2, “Fluorinated surfactants for use in making a fluoropolymer” (3M Innovative Properties Company, priority 2005, dated 2010):

Assay: Determination of bio-accumulation: urinary clearance pharmacokinetic study in rats
Type: in vivo, male Sprague Dawley rats
Experimental: The goal was to measure the total amount of parent compound eliminated via urinary output and estimate the rate of elimination.
The study utilized male Sprague Dawley rats, 6 to 8 weeks of age, and approximately 200 to 250 g body weight at study onset. The test compounds of table 2 were administered at a dose of 73 micro Moles per kg body weight in rats (N=3 animals per tested compound). All test compounds were prepared in sterile deionized water and given to rats via oral gavage. After test compounds administration, the rats were housed individually in metabolism cages for urine collection: 0 to 6 hours, 6 to 24 hours, 24 to 48 hours and 72 to 96 hours. Animals were observed throughout the study for clinical signs of toxicity. Gross necropsy was performed at the termination of each study (96 hours post-dose) with sera and liver samples being retained from each animal.
The concentration of the parent compound or metabolites thereof were quantitatively measured via fluorine NMR on each urine sample for each animal at each time point based on internally added standards.
T ½ and % recovery are based on elimination of the major metabolite—C3F7—O—CHFCOO^−. T1/2 is the renal half-life and is the time required for the amount of a particular substance in a biological system to be reduced to one half of its value by biological processes when the rate of removal is approximately exponential. In these examples the value of T1/2 is calculated by exponential least squares curve fitting (y=Ae^Bx and T1/2=0.693/B) where y represents the concentration of analyte in urine and x represents time in hours.

Compound	% Recovery (96 h) (male Sprague Dawley rats, 73 micro Moles per kg oral gavage, recovery in urine after 96 h, values marked * based on major metabolite C3F7—O—CHFCOO−) [%]	Compound-related Effects (male Sprague Dawley rats, 73 micro Moles per kg oral gavage, clinical signs observed, gross necropsy at 96 hours post-dose)	half-life (rat, in vivo, 73 micro Moles per kg body weight, male Sprague Dawley rats, 73 micro Moles per kg oral gavage, urine 0-96 h by fluorine NMR, exponential least squares fit, values marked * based on elimination of major metabolite C3F7—O—CHFCOO−, read-out: T ½ (h) (renal half-life))	parent compound in the urine (rat, in vivo, po)
N.O=C(O)C(F)(F)C(F)(F)C(F)(F)C(F)(F)C(F)(F)C(F)(F)C(F)(F)F [APFO, ammonium perfluorooctanoic acid]	6	Hepatomegaly	~550	
C3F7—O—C2HF3—O—CH2—COO^−NH4 [Example 2]				No parent compound observed in the urine
